Experiments:
A-375 [1] = test: Antiproliferative activity against human A-375 cells assessed as inhibition of cell growth at 20 uM incubated for 48 hrs by MTT assay; type: functional
HeLa [2] = test: Antiproliferative activity against human HeLa cells assessed as inhibition of cell growth at 20 uM incubated for 48 hrs by MTT assay; type: functional
MDA-MB-231 [3] = test: Antiproliferative activity against human MDA-MB-231 cells assessed as inhibition of cell growth incubated for 48 hrs by MTT assay; type: functional, cell-based; conditions: MDA-MB-231, 48 h
HCT-116 [4] = test: Induction of cell cycle arrest in human HCT-116 cells assessed as decrease in cells at G0/G1 phase at 7.5 to 10 uM incubated for 48 hrs by propidium iodide staining based flow cytometry analysis (reference value: 66.42 %); type: functional; set-up: scale not given: the % may be the effect or the level left; conditions: dose 7.5-10 µM
[5] = biological target: Poly [ADP-ribose] polymerase 1 (Homo sapiens, UniProt P09874); test: Inhibition of PARP1 (unknown origin) by ELISA
Chain of Poly [ADP-ribose] polymerase 1 (P09874 whole entry): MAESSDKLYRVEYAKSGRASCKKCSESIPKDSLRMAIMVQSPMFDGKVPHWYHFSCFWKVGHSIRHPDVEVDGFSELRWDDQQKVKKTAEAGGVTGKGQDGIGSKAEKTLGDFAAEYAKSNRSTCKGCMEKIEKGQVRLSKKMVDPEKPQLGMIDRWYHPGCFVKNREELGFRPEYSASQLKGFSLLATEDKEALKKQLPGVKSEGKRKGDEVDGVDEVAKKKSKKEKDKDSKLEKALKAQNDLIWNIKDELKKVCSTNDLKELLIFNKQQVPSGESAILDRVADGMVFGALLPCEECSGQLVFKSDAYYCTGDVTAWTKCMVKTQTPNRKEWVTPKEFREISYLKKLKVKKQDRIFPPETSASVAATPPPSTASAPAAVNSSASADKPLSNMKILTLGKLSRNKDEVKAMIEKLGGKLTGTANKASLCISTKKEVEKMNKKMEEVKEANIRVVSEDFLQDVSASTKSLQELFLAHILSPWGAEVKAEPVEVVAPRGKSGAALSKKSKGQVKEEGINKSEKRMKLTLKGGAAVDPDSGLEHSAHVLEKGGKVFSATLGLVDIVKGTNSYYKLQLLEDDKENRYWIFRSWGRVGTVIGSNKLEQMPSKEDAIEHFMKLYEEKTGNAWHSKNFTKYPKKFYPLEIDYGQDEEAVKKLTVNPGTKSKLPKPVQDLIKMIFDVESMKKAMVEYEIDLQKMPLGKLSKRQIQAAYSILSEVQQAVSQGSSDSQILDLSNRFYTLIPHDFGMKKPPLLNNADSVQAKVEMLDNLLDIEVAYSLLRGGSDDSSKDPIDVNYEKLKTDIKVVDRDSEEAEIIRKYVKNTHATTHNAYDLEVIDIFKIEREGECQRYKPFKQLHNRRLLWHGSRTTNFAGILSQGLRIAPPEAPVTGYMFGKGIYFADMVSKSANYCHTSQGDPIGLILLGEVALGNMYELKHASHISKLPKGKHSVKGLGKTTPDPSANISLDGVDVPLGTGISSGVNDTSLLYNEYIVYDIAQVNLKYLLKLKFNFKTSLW

HCT-116 [6] = test: Inhibition of colony formation in human HCT-116 cells measured every 3 days for 14 days by crystal violet staining based assay; type: functional, cell-based; conditions: dose 1.88-15 µM, time 14.0 day
HCT-116 [7] = test: Inhibition of colony formation in human HCT-116 cells at 7.5 uM measured every 3 days for 14 days by crystal violet staining based assay; type: functional; conditions: HCT-116, 336 h, time 14 day
HCT-116 [8] = test: Induction of apoptosis in human HCT-116 cells assessed as necrotic cells at 15 uM incubated for 48 hrs by Annexin-V and PI staining based flow cytometry analysis (reference value: 0.06%); type: functional
HCT-116 [9] = test: Inhibition of cell migration in human HCT-116 cells at 15 uM incubated for 24 hrs by wound healing assay (reference value: 32.0 %); type: functional
HCT-116 [10] = test: Induction of cell cycle arrest in human HCT-116 cells assessed as accumulation of cells at G2/M phase at 7.5 to 10 uM incubated for 48 hrs by propidium iodide staining based flow cytometry analysis (reference value: 27.84 %); type: functional; conditions: dose 7.5-10 µM
A549 [11] = test: Antiproliferative activity against human A549 cells assessed as inhibition of cell growth incubated for 48 hrs by MTT assay; type: functional, cell-based; conditions: A549, 48 h
HCT-116 [12] = test: Induction of apoptosis in human HCT-116 cells assessed as viable cells at 3.75 uM incubated for 48 hrs by Annexin-V and PI staining based flow cytometry analysis (reference value: 98.60%); type: functional; conditions: read-out: Activity
HCT-116 [13] = test: Induction of apoptosis in human HCT-116 cells assessed as late apoptotic cells at 7.5 uM incubated for 48 hrs by Annexin-V and PI staining based flow cytometry analysis (reference value: 0.06%); type: functional
MDA-MB-231 [14] = test: Antiproliferative activity against human MDA-MB-231 cells assessed as inhibition of cell growth at 20 uM incubated for 48 hrs by MTT assay; type: functional
HeLa [15] = test: Antiproliferative activity against human HeLa cells assessed as inhibition of cell growth incubated for 48 hrs by MTT assay; type: functional, cell-based
HCT-116 [16] = test: Induction of apoptosis in human HCT-116 cells assessed as late apoptotic cells at 15 uM incubated for 48 hrs by Annexin-V and PI staining based flow cytometry analysis (reference value: 0.06%); type: functional
A-375 [17] = test: Antiproliferative activity against human A-375 cells assessed as inhibition of cell growth incubated for 48 hrs by MTT assay; type: functional, cell-based; conditions: A-375, 48 h
HCT-116 [18] = test: Induction of apoptosis in human HCT-116 cells assessed as viable cells at 15 uM incubated for 48 hrs by Annexin-V and PI staining based flow cytometry analysis (reference value: 98.60%); type: functional; conditions: read-out: Activity
L02 = test: Antiproliferative activity against human L02 cells assessed as inhibition of cell growth […] incubated for 48 hrs by MTT assay; type: functional, cell-based; conditions: L02, 48 h
HCT-116 [19] = test: Induction of apoptosis in human HCT-116 cells assessed as early apoptotic cells at 3.75 uM incubated for 48 hrs by Annexin-V and PI staining based flow cytometry analysis (reference value: 1.26%); type: functional
HCT-116 [20] = test: Inhibition of colony formation in human HCT-116 cells at 10 uM measured every 3 days for 14 days by crystal violet staining based assay; type: functional; conditions: HCT-116, 336 h, time 14 day
HCT-116 [21] = test: Inhibition of cell migration in human HCT-116 cells at 7.5 uM incubated for 24 hrs by wound healing assay (reference value: 32.0 %); type: functional
HCT-116 [22] = test: Induction of apoptosis in human HCT-116 cells assessed as necrotic cells at 3.75 uM incubated for 48 hrs by Annexin-V and PI staining based flow cytometry analysis (reference value: 0.06%); type: functional
HCT-116 [23] = test: Induction of apoptosis in human HCT-116 cells assessed as early apoptotic cells at 7.5 uM incubated for 48 hrs by Annexin-V and PI staining based flow cytometry analysis (reference value: 1.26%); type: functional
A549 [24] = test: Antiproliferative activity against human A549 cells assessed as inhibition of cell growth at 20 uM incubated for 48 hrs by MTT assay; type: functional
HCT-116 [25] = test: Induction of apoptosis in human HCT-116 cells assessed as necrotic cells at 7.5 uM incubated for 48 hrs by Annexin-V and PI staining based flow cytometry analysis (reference value: 0.06%); type: functional
HCT-116 [26] = test: Antiproliferative activity against human HCT-116 cells assessed as inhibition of cell growth at 20 uM incubated for 48 hrs by MTT assay; type: functional
HCT-116 [27] = test: Inhibition of cell migration in human HCT-116 cells at 15 uM incubated for 48 hrs by wound healing assay (reference value: 42.8 %); type: functional
HCT-116 [28] = test: Potency index, ratio of olaparib IC50 to test compound IC50 for antiproliferative activity against human HCT-116 cells; type: functional
HCT-116 [29] = test: Inhibition of cell migration in human HCT-116 cells at 7.5 uM incubated for 48 hrs by wound healing assay (reference value: 42.8 %); type: functional
HCT-116 [30] = test: Induction of apoptosis in human HCT-116 cells assessed as viable cells at 7.5 uM incubated for 48 hrs by Annexin-V and PI staining based flow cytometry analysis (reference value: 98.60%); type: functional; conditions: read-out: Activity
HCT-116 [31] = test: Induction of apoptosis in human HCT-116 cells assessed as late apoptotic cells at 3.75 uM incubated for 48 hrs by Annexin-V and PI staining based flow cytometry analysis (reference value: 0.06%); type: functional
HCT-116 [32] = test: Induction of apoptosis in human HCT-116 cells assessed as early apoptotic cells at 15 uM incubated for 48 hrs by Annexin-V and PI staining based flow cytometry analysis (reference value: 1.26%); type: functional

IC50 (MDA-MB-231 [3]): 13.7 µM
IC50 [5]: 0.00517 µM
IC50 (A549 [11]): 12.4 µM
IC50 (HeLa [15]): 14.3 µM
IC50 (A-375 [17]): 15.1 µM
Compound: NC(=O)c1ccccc1NCc1cccc(NC(=O)Nc2cccc(Br)c2)c1
inhibition at 20 µM (A-375 [1]): 81.8%
inhibition at 20 µM (HeLa [2]): 72.2%
Activity (HCT-116 [4]): 55.94%
inhibition (HCT-116 [6]): Dose-Dependent Effect
inhibition at 7.5 µM (HCT-116 [7]): 100%
Activity (HCT-116 [8]): 0.43%
inhibition at 15 µM (HCT-116 [9]): 14.7%
Activity (HCT-116 [10]): 34.6%
viability at 3.75 µM (HCT-116 [12]): 89.8%
Activity (HCT-116 [13]): 0.7%
inhibition at 20 µM (MDA-MB-231 [14]): 86.8%
Activity (HCT-116 [16]): 2.2%
viability at 15 µM (HCT-116 [18]): 54.5%
IC50 (L02): 100 µM
Activity (HCT-116 [19]): 9.81%
inhibition at 10 µM (HCT-116 [20]): 100%
inhibition at 7.5 µM (HCT-116 [21]): 21%
Activity (HCT-116 [22]): 0.1%
Activity (HCT-116 [23]): 12.93%
inhibition at 20 µM (A549 [24]): 78.8%
Activity (HCT-116 [25]): 0.1%
inhibition at 20 µM (HCT-116 [26]): 91%
inhibition at 15 µM (HCT-116 [27]): 24.2%
Ratio IC50 (HCT-116 [28]): 7.87
inhibition at 7.5 µM (HCT-116 [29]): 23.3%
viability at 7.5 µM (HCT-116 [30]): 86.3%
Activity (HCT-116 [31]): 0.29%
Activity (HCT-116 [32]): 42.85%
